# Reference: patent publication US20220241223A1, “USE OF DISULFIRAM OR ITS DERIVATIVES FOR THE TREATMENT OF MITOCHONDRIAL DISEASES OR DYSFUNCTION” (Universite D'angers, priority 2019, published 2022)
# Key:
# [1] = tested on: all the tested mutant strains; experiment: Halo test of growth on respiratory medium, all strains together (FIG. 1A); format: cell-based, Saccharomyces cerevisiae; conditions: at different extents
# Description: A/ Effect of DSF on growth of various mutant yeast strains on a respiratory medium as detected by halo tests.
# Each of the various Saccharomyces cerevisiae yeast strains used in examples 1 to 3 contain different specific mutations modeling human mutations resulting in mitochondrial diseases. At different extents, all these yeast strains present growth defect when grown on respiratory medium such as ethanol or glycerol at 28° C. or 36° C. (depending on the strain). […]
# More precisely, 200 μL of the various yeast mutant strain grown in liquid YPD rich fermentable medium (1% Yeast Extract, 0.5% Bacto Peptone, 2% Glucose) at 0.4 OD600 were spread on agar-based solid respiratory medium: either YPG (1% Yeast Extract, 0.5% Bacto Peptone, 2% glycerol) or YPE (1% Yeast Extract, 0.5% Bacto Peptone, 2% ethanol). Small sterile filters were then placed on the agar surface and increasing concentrations of DSF were added to the filters at the indicated quantities. […]
# [2] = tested on: A29G, shy1 and coa6 yeast mutant strains; experiment: Yeast respiration, O2 consumption rate (Hansatech electrode); format: cell-based, Saccharomyces cerevisiae; conditions: FIG. 2; 200 nM for A29G, 300 nM for shy1 and coa6 mutants; with or without CCCP
# Text: FIG. 2: Effect of DSF on O2 consumption rate (VO2, nmol O2 10^7 cell/min) of various yeast mutant strains, with or without CCCP. The data are the means±SEM of at least three independent experiments. The significance of variations among samples and controls was estimated using Anova multifactorial test: Tukey; (* P value<0.05; ** P<0.01; *** P<0.001; **** P<0.0001)).
# The respiratory intensity corresponds to the amount of oxygen consumed relative to time and to the quantity of cells. It reflects the oxidative metabolism of cells. Oxygen consumption was measured using a Hansatech electrode. Cells were grown for 7-8 generations at 28° C. for 24 or 48 h in YPE medium (1% Yeast Extract, 0.5% Bacto Peptone, 2% ethanol) or galactose medium (1% Yeast Extract, 0.5% Bacto Peptone, 2% galactose) supplemented with either DMSO or DSF (200 nM for A29G; 300 nM for shy1 and coati mutants). […] 02 consumption was recorded with or without CCCP (Carbonyl Cyanide m-Chloro-Phenyl hydrazine; an uncoupling agent that dissipates the proton gradient that is established during the normal activity of the respiratory chain. In the presence of CCCP, the maintenance of an electrical potential across the inner mitochondrial membrane is impossible and respiration becomes maximal. The 02 consumption rate was calculated based on the linear part of 02 consumption.
# control cybrids (JCP213) = experiment: Control cybrid growth in glucose-deprived medium; format: cell-based, human; conditions: same range of concentration
# Description: The cybrid cell lines JCP213 (WT control) and JCP239 (NARP T8993G, Manfredi G et al.) were grown in high glucose (4.5 g/L final concentration) DMEM (supplemented with fetal bovine serum—FBS—at 5% final concentration, sodium pyruvate at 1 mM final concentration, L-glutamine at 4 mM final concentration and uridine at 200 μM final concentration) and then shifted in the same DMEM-based medium except that it is deprived of glucose to encourage the cells to rely on OXPHOS (OXidative PHOSphorylation) rather than glycolysis, supplemented with: • various concentrations of DSF; or • as control, with equivalent quantity of DMSO (compound vehicle, negative control); or • with 150 μM dihydrolipoic acid (DHLA, positive control, as in previous studies (Couplan E et al. & Aiyar R S et al.). All the cells were grown at 37° C. in presence of 5% CO2.
# [3] = tested on: normal cells or intact mitochondria; conditions: very high concentrations (above 25 μM); Gill, Mali, Kuroda, Hassinen; cited from earlier work
smiles,measurement,setting,value
"CCN(CC)C(=S)SSC(=S)N(CC)CC [DSF, 1-(diethylthiocarbamoyldisulfanyl)-N,N-diethyl-methanethioamide]",effect on growth defect on non-fermentable (respiratory) medium,[1],suppresses the growth defect
same,effect on yeast respiration (O2 consumption rate),[2],increases the yeast respiration
same,effect on growth of control cybrids,control cybrids (JCP213),no effect
same,effect on mitochondrial function,[3],affect mitochondrial function
